Drawing on patent publication US8623857B2, “N-phenyl imidazole carboxamide inhibitors of 3-phosphoinositide-dependent protein kinase-1” (Merck Sharp & Dohme Corp., priority 2010, dated 2014), this text covers IC50 for 26 molecules.

For the first assay, the target named is T1, recombinant human PDK1 (Homo sapiens, UniProt O15530).
T1 construct: containing amino acids 51-556 of the human PDK1 enzyme; made in house; host or cells: Sf9 insect cells
T1 sequence (O15530 51-556): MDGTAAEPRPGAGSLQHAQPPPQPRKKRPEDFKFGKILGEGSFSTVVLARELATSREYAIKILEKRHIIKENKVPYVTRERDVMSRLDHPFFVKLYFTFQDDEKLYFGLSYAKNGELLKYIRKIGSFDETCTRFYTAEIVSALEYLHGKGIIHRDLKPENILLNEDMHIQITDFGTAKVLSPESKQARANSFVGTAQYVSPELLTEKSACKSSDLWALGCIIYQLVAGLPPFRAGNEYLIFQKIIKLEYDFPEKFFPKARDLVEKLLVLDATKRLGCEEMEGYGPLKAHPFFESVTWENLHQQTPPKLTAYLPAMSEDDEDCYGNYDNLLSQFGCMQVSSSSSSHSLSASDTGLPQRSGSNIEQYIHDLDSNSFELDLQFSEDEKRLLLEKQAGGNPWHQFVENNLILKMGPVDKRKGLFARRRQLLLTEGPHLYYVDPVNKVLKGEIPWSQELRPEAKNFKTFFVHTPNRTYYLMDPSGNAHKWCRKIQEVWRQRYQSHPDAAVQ
In words: PDK1 IMAP fluorescence polarization assay (inhibition of peptide substrate phosphorylation). The conditions noted are these: Table 6; 10 nM PDK1 enzyme, 100 nM peptide substrate, 100 nM PIFtide, 2.5 uM ATP, 1.5 hours. In kind it is biochemical.
With `Cc1cc(-c2c[nH]c(C(=O)Nc3cccc(F)c3N3CCC(C(=O)N4CCOCC4CN)CC3)n2)ccn1` (centres unmarked) [Compound 81, N-[2-[4-[[3-(aminomethyl)-4-morpholinyl]carbonyl]-1-piperidinyl]-3-fluorophenyl]-4-(2-methyl-4-pyridinyl)-1H-imidazole-2-carboxamide], the IC50 is 51 to 250 nM.

For `Cc1cc(-c2c[nH]c(C(=O)Nc3cccc(F)c3N3CCC(C(=O)N4CCC4)CC3)n2)ccn1` [Compound 66, N-[2-[4-(1-azetidinylcarbonyl)-1-piperidinyl]-3-fluorophenyl]-4-(2-methyl-4-pyridinyl)-1H-imidazole-2-carboxamide], the IC50 was 1000 to 5000 nM.

As to `CCC1(CN)CCN(c2c(F)cccc2NC(=O)c2nc(-c3ccnc(C)c3)c[nH]2)CC1` [Compound 52, N-[2-[4-(aminomethyl)-4-ethyl-1-piperidinyl]-3-fluorophenyl]-4-(2-methyl-4-pyridinyl)-1H-imidazole-2-carboxamide], the IC50 fell in the range of 51 to 250 nM.

In the case of `N[C@@H]1CCCN(c2c(F)cccc2NC(=O)c2nc(-c3ccnc(-n4cccn4)c3)c[nH]2)C1` [Compound 39, N-[2-(3(R)-amino-1-piperidinyl)-3-fluorophenyl]-4-[2-(1H-pyrazol-1-yl)-4-pyridinyl]-1H-imidazole-2-carboxamide], the IC50 lay within 251 to 1000 nM.

For the molecule `COc1ccc(CNc2cc(-c3c[nH]c(C(=O)Nc4cccc(F)c4N4CCC(CN)CC4)n3)nc(N)n2)cc1OC` [Compound 76, 4-[2-amino-6-[[(3,4-dimethoxyphenyl)methyl]amino]-4-pyrimidinyl]-N-[2-[4-(aminomethyl)-1-piperidinyl]-3-fluorophenyl]-1H-imidazole-2-carboxamide], the IC50 fell in the range of 251 to 1000 nM.

Take `NCC1CCN(c2ccc(-c3cn[nH]c3)cc2NC(=O)c2nc(-c3cn[nH]c3)c[nH]2)CC1` [Compound 51, N-[2-[4-(aminomethyl)-1-piperidinyl]-5-(1H-pyrazol-4-yl)phenyl]-4-(1H-pyrazol-4-yl)-1H-imidazole-2-carboxamide]: the IC50 was 251 to 1000 nM.

Take `CCc1cc(-c2c[nH]c(C(=O)Nc3cccc(F)c3N3CCC(CN)CC3)n2)ccn1` [Compound 30, N-[2-[4-(aminomethyl)-1-piperidinyl]-3-fluorophenyl]-4-(2-ethyl-4-pyridinyl)-1H-imidazole-2-carboxamide]: the IC50 lay within 1 to 50 nM.

Turning to `Cc1cc(-c2c[nH]c(C(=O)Nc3cccc(F)c3N3CCC(C)(CN)CC3)n2)ccn1` [Compound 55, N-[2-[4-(aminomethyl)-4-methyl-1-piperidinyl]-3-fluorophenyl]-4-(2-methyl-4-pyridinyl)-1H-imidazole-2-carboxamide], the concentration for half-maximal inhibition (IC50) was in the range of 51 to 250 nM.

As for `NCC1CCN(c2c(F)cccc2NC(=O)c2nc(-c3cccc(S(N)(=O)=O)c3)c[nH]2)CC1` [Compound 31, N-[2-[4-(aminomethyl)-1-piperidinyl]-3-fluorophenyl]-4-[3-(aminosulfonyl)phenyl]-1H-imidazole-2-carboxamide], the IC50 fell in the range of 51 to 250 nM.

Regarding `NCC1CCN(c2c(F)cccc2NC(=O)c2nc(-c3cccc(CCO)c3)c[nH]2)CC1` [Compound 41, N-[2-[4-(aminomethyl)-1-piperidinyl]-3-fluorophenyl]-4-[3-(2-hydroxyethyl)phenyl]-1H-imidazole-2-carboxamide], the IC50 was in the range of 51 to 250 nM.

With `Cc1cc(-c2c[nH]c(C(=O)Nc3cccc(F)c3N3CCC(C(=O)NC4CCCCC4N)CC3)n2)ccn1` (centres unmarked) [Compound 84, N-(2-aminocyclohexyl)-1-[2-fluoro-6-[[[4-(2-methyl-4-pyridinyl)-1H-imidazol-2-yl]carbonyl]amino]phenyl]-4-piperidinecarboxamide], the IC50 fell in the range of 51 to 250 nM.

For the molecule `NCC1CCN(c2c(F)cccc2NC(=O)c2nc(-c3cc(N[C@@H](CO)c4ccccc4)nc(N)n3)c[nH]2)CC1` [Compound 72, 4-[2-amino-6-[[2-hydroxy-1(R)-phenylethyl]amino]-4-pyrimidinyl]-N-[2-[4-(aminomethyl)-1-piperidinyl]-3-fluorophenyl]-1H-imidazole-2-carboxamide], the IC50 is 1 to 50 nM.

With `N[C@@H]1CCCN(c2c(F)cccc2NC(=O)c2nc(-c3cncc(C(F)(F)F)c3)c[nH]2)C1` [Compound 9, N-[2-(3(R)-amino-1-piperidinyl)-3-fluorophenyl]-4-[5-(trifluoromethyl)-3-pyridinyl]-1H-imidazole-2-carboxamide], the IC50 fell in the range of 1000 to 5000 nM.

Consider `Cc1cc(-c2c[nH]c(C(=O)Nc3cccc(F)c3N3CCC(C(=O)N(C)C)CC3)n2)ccn1` [Compound 61, 1-[2-fluoro-6-[[[4-(2-methyl-4-pyridinyl)-1H-imidazol-2-yl]carbonyl]amino]phenyl]-N,N-dimethyl-4-piperidinecarboxamide], for which the half-maximal inhibitory concentration (IC50) is 1000 to 5000 nM.

With `N[C@@H]1CCCN(c2c(F)cccc2NC(=O)c2nc(-c3ccnc(C4CC4)c3)c[nH]2)C1` [Compound 23, N-[2-(3(R)-amino-1-piperidinyl)-3-fluorophenyl]-4-(2-cyclopropyl-4-pyridinyl)-1H-imidazole-2-carboxamide], the IC50 is 51 to 250 nM.

As for `CCNC(=O)C1CCN(c2c(F)cccc2NC(=O)c2nc(-c3ccnc(C)c3)c[nH]2)CC1` [Compound 60, N-ethyl-1-[2-fluoro-6-[[[4-(2-methyl-4-pyridinyl)-1H-imidazol-2-yl]carbonyl]amino]phenyl]-4-piperidinecarboxamide], the IC50 was in the range of 1000 to 5000 nM.

On to `Cc1cc(-c2c[nH]c(C(=O)Nc3cccc(F)c3N3CCC4CCNC4C3)n2)ccn1` (centres unmarked) [Compound 43, N-[3-fluoro-2-(octahydro-6h-pyrrolo[2,3-c]pyridin-6-yl)phenyl]-4-(2-methyl-4-pyridinyl)-1H-imidazole-2-carboxamide], for which the IC50 is 51 to 250 nM.

Regarding `Cc1cc(-c2c[nH]c(C(=O)Nc3cccc(F)c3N3CCC(C(=O)N4CCC(O)(c5ccccn5)CC4)CC3)n2)ccn1` [Compound 96, N-[3-fluoro-2-[4-[[4-hydroxy-4-(2-pyridinyl)-1-piperidinyl]carbonyl]-1-piperidinyl]phenyl]-4-(2-methyl-4-pyridinyl)-1H-imidazole-2-carboxamide], the IC50 fell in the range of 1000 to 5000 nM.

The assay is the same for the next values; noted with them: Table 10; compounds 97-132.
For the molecule `CNc1nc(-c2c[nH]c(C(=O)Nc3cccc(F)c3N3CCO[C@@H](CN)C3)n2)cc(N2C[C@@H](C(=O)NC3CCCCC3)CC[C@H]2C)n1` [Compound 117, (3S,6R)-1-(6-(2-(2-((S)-2-(aminomethyl)morpholino)-3-fluorophenylcarbamoyl)-1H-imidazol-4-yl)-2-(methylamino)pyrimidin-4-yl)-N-cyclohexyl-6-methylpiperidine-3-carboxamide], the IC50 was in the range of 1 to 50 nM.

Consider `CNc1nc(-c2c[nH]c(C(=O)Nc3cccc(F)c3N3CCO[C@@H](CN)C3)n2)cc(N2CC(C(=O)NC3CCCCC3)CCC2C)n1` (mixture of isomers) [Compound 110, 1-(6-(2-(2-((S)-2-(aminomethyl)morpholino)-3-fluorophenylcarbamoyl)-1H-imidazol-4-yl)-2-(methylamino)pyrimidin-4-yl)-N-cyclohexyl-6-methylpiperidine-3-carboxamide], for which the IC50 was in the range of 1 to 50 nM.

For the molecule `CNc1nc(-c2c[nH]c(C(=O)Nc3cccc(F)c3N3CCC(CN)CC3)n2)cc(N2CCNC[C@H]2C)n1` [Compound 120, (R)—N-(2-(4-(aminomethyl)piperidin-1-yl)-3-fluorophenyl)-4-(2-(methylamino)-6-(2-methylpiperazin-1-yl)pyrimidin-4-yl)-1H-imidazole-2-carboxamide], the IC50 lay within 1 to 50 nM.

`CNc1nc(-c2c[nH]c(C(=O)Nc3cccc(F)c3N3CCC(CN)CC3)n2)cc(N2CC[C@@](COC)(C(=O)NCc3ccccc3)C2)n1` [Compound 130, (R)—N-(2-(4-(aminomethyl)piperidin-1-yl)-3-fluorophenyl)-4-(6-(3-(benzylcarbamoyl)-3-(methoxymethyl)pyrrolidin-1-yl)-2-(methylamino)pyrimidin-4-yl)-1H-imidazole-2-carboxamide]: the IC50 lay in the range of 1 to 50 nM.

`CNc1nc(-c2c[nH]c(C(=O)Nc3cccc(F)c3N3CCC(CN)CC3)n2)cc(N2CCC(NC)(C(N)=O)CC2)n1` [Compound 127, 1-(6-(2-(2-(4-(aminomethyl)piperidin-1-yl)-3-fluorophenylcarbamoyl)-1H-imidazol-4-yl)-2-(methylamino)pyrimidin-4-yl)-4-(methylamino)piperidine-4-carboxamide]: the IC50 is 1 to 50 nM.

Consider `CNc1nc(-c2c[nH]c(C(=O)Nc3ccccc3OC3CCNCC3)n2)cc(N2CC(C(=O)NC3CCCCC3)CCC2C)n1` (racemic) [Compound 108, N-cyclohexyl-6-methyl-1-(2-(methylamino)-6-(2-(2-(piperidin-4-yloxy)phenylcarbamoyl)-1H-imidazol-4-yl)pyrimidin-4-yl)piperidine-3-carboxamide], for which the IC50 fell in the range of 1 to 50 nM.

`NCC1CCN(c2c(F)cccc2NC(=O)c2nc(-c3cc(N4CCOCC4)nc(N)n3)c[nH]2)CC1` [Compound 99, 4-(2-amino-6-morpholinopyrimidin-4-yl)-N-(2-(4-(aminomethyl)piperidin-1-yl)-3-fluorophenyl)-1H-imidazole-2-carboxamide]: the IC50 fell in the range of 1 to 50 nM.

For the molecule `CNc1nc(-c2c[nH]c(C(=O)Nc3cccc(F)c3N3CCC(CN)CC3)n2)cc(N2CCO[C@H](CN)C2)n1` [Compound 123, (R)-4-(6-(2-(aminomethyl)morpholino)-2-(methylamino)pyrimidin-4-yl)-N-(2-(4-(aminomethyl)piperidin-1-yl)-3-fluorophenyl)-1H-imidazole-2-carboxamide], the IC50 is 1 to 50 nM.
